Test results as given in patent EP2138174A1, “PHARMACEUTICAL COMPOSITION IN THE FORM OF A SUBLINGUAL TABLET CONSISTING OF A NON-STEROIDAL ANTI-INFLAMMATORY AGENT AND AN OPIATE ANALGESIC FOR PAIN MANAGEMENT” (priority 2007, dated 2008).
Values joined by “and” are separate entries in the source; they are usually repeats but may differ in a detail not shown here. Identical values can stand only once. Counter-ions that a name gives are not always drawn. Like-named read-outs stand apart in the source and are kept apart here.

Legend:
stomach = experiment: Gastrointestinal side effect measurement (gastric ulcers and erosions, relative to indomethacin); assay type: in vivo, Female rats from Wistar type; settings: for Gastric lesion ((Index of ulcers in drug tests / Index of ulcers in indomethacin tests) x 100): relative to indomethacin 20 mg/kg = 100, same doses and schedule as ulcer column
Procedure: Female rats from Wistar type (150-180 g body weight) were subject to fasting 24 hours before experimentation. […] 2.5 hours later, all the groups received a second administration of the same doses. Stomachs were examined at 5 hours after first treatment in the following way: animals were sacrificed and stomach was separated which was opened along its lower curvature, gently rinsing with formol (2%) and examined. Severity of induced gastric lesions with medicament was calculated as a ratio of number of lesions (stomach ulcer or erosion) caused by provided treatment and the number of lesions caused by indomethacin (100%). This was determined to reflect the side effects induced by medicament. The sum of the area of all the ulcers in the body of each animal was calculated and served as an ulcerative index. Gastric lesion percentage was calculated in the following way: % of gastric lesion = (IUM/IUI) × 100 [formula] wherein IUM is the Medicament Ulcerative Index on test (mm^2) and IUI is the Ulcerative Index for assayed Indomethacin (mm^2).
ABC was calculated for each drug combination and for each of the components. On the basis of addition of individual pharmacological effects (Seegers et al., 1981) an ABC equivalent to the sum was expected. If the sum of the corresponding individual ABC was higher than the theoretical sum, the result was determined as enhancement; when similar to the theoretical sum it was determined to show additive antinociceptive effects. ABC was obtained through the trapezoidal rule (Rowland and Trozer, 1989). All the values for each treatment were average ± S.E.M., for six animals. ABC values for drug combinations were compared with the values which were expected by using the Student test. […] A P<0.05 was determined as statistically significant.

rat arthritic pain model = experiment: PIFIR model: antinociceptive activity after intraarticular uric acid (rat arthritic pain model); assay type: in vivo, Wistar [CRl (WI) BR] female rats; set-up: antinociceptive efficiency (ABC): dose or concentration left out as unconfirmed
Procedure: A rat arthritic pain model was determined for said purpose. Data were interpreted by using a Surface Synergic Interaction Analysis (ISS) and an Isobolographic Analysis to determine the interaction nature. ISS is calculated from the total antinociceptive effect produced by a combination after a substraction of an antinociceptive effect produced separately by the drug.
For this trial, Wistar [CRl (WI) BR] female rats weighing 180-200 g. were weighed. Feed was maintained 12 hours before the water ad libitum access experiments. All the experimental procedures followed the recommendations of the Committee for Research and Ethical Issues of the International Association for the Study of Pain (Covino et al., 1980) and Guidelines on Ethical Standards for Investigations of Experimental Pain in Animals (Zimmermann, 1983) and they were carried out according to a protocol approved by the local Animal Ethics Committee. Animal number in experiment was kept at a […] and animals were maintained in a weathered room and light control with a 12-hour light/darkness cycle.
Uric acid was suspended in mineral oil; Ketorolac trometamine, tramadol hydrochloride and indomethacin were dissolved in carboxymethyl cellulose and orally administered.
Antinociceptive activity was determined by using a PIFIR model which has been described in detail (López-Muñoz et al., 1993). Animals were anesthetized with chamber ether (Pyrex-glass dryer saturated with ether vapor). Nociception was induced through an intraarticular injection (ia) of 0.5 mL uric acid suspended in mineral oil in the right-hind leg knee joint. Suspension was prepared by mixing 3.0 g of uric acid with 10 mL of mineral oil in a glass mortar with pestle (Pyrex). Intraarticular injection was carried out through the patellar ligament using a 1 mL glass syringe (Beckton Dickinson LTA, Brazil) with a 5 mm 24-needle. Immediately after, an electrode was implanted in the plantar surface of each hind claw between the plantar pads. Rats were allowed to recover from anesthesia and then a stainless steel cylinder was attached which was rotated at 4 rpm, forcing to the rats to walk for 2 minute periods every 30 minutes during 6.5 hours. It was not necessary a training period since rats learned it from the first minute. Contact time between each implanted electrode in rat limb and cylinder was registered. After the uric acid injection, rats progressively developed damaged limb dysfunction. […] This time was considered as zero time for antinoceptive effect measures; these effects are measured every 30 minutes during the following 4 hours. This allowed determining the course of the nociceptive effects in the same animal. Antinociception was considered as a recovery of contact time. Data are expressed as a performance percentage index (IF%; that is, contact time of injected leg divided by contact time of left leg, control, multiplied per 100). For the purpose of this trial, it was unavoidable to induce nociception in experimentation animals. However, care was taken in preventing an unnecessary suffering. All the experiments were performed between 7:00 A.M. and 2:00 P.M.
At the end of the study the rats were sacrificed.
Study data, tables and figures are expressed as IF%. IF% vs. time curves were prepared for each treatment and the corresponding time course was obtained. Antinociception was estimated as a recovery of IF%. Accumulated antinociceptive effect during all the observation period (4 hours) was determined as the area under the curve (ABC) for time course to obtain the dose-response curve and for analyzing the total antinociceptive effect obtained for the analgesic agent whether alone and in combination.
ABC was calculated for each drug combination and for each of the components. On the basis of addition of individual pharmacological effects (Seegers et al., 1981) an ABC equivalent to the sum was expected. […]

[1] = in vivo
Procedure: Blood samples were taken up to 24 hours after medicament delivery.
In order to determine whether bioavailability is existent or not between both medicaments, a logarithmic transformation of data was carried out and they were analyzed by means of the statistical package WinNonlinTM.
Confidence ranges proposed by FDA for semilogarithmic data in determining bioequivalency of two products are from 80 to 125%.

[2] = ketorolac, cited from earlier work
[3] = cited from earlier work
[4] = p.o., two administrations 2.5 hours apart, stomach examined at 5 hours, indomethacin 20 mg/kg, ketorolac 1 mg/kg, tramadol 17.8 mg/kg, combination as in title, six rats

COc1ccc2c(c1)c(CC(=O)O)c(C)n2C(=O)c1ccc(Cl)cc1 [Indomethacin]
No. of erosions (stomach; [4]): 30.0 ± 3.9 | Ulcers (sum of the area of all ulcers) (stomach; [4]): 51.6 ± 3.4 mm^2 | Gastric lesion ((Index of ulcers in drug tests / Index of ulcers in indomethacin tests) x 100) (stomach): 100%

O=C(c1ccccc1)c1ccc2n1CCC2C(=O)O (centres unmarked) [Ketorolac, Ketorolac trometamine]
Emax (rat arthritic pain model; IF% time course, ketorolac 0.32 mg/kg p.o. alone): 33.7 ± 8.7% | ED50 (rat arthritic pain model; Rattus norvegicus, po, dose causing 50% of maximum possible effect, linear regression of dose-response curve, ± S.E.M., read-out: DE50 (the source's name)): 0.86 ± 0.1 mg/kg | ABC (rat arthritic pain model; ketorolac 0.32 mg/kg p.o. alone, 4 hours): 65.0 ± 9.6 au | ABC (rat arthritic pain model; ketorolac 0.56 mg/kg p.o. alone, 4 hours): 98.7 ± 15.5 au | ABC (rat arthritic pain model; ketorolac 1.78 mg/kg p.o. alone, 4 hours): 279.0 ± 15.5 au | antinociceptive effect (ABC) (rat arthritic pain model; ketorolac 3.16 mg/kg p.o., maximum used dose): 295.8 ± 14.9 au | effect on walking capacity of rats treated with vehicle (rat arthritic pain model; ketorolac 0.18 -5.62 mg/kg, tramadol 3.16-56.23 mg/kg, no uric acid, data not shown): did not affect the walking capacity | antinociceptive efficiency (ABC) (rat arthritic pain model; ketorolac p.o., area under IF% vs time curve, 4 hours, mean ± S.E.M., six animals): 295.8 ± 14.9 au | Ulcers (sum of the area of all ulcers) (stomach; [4]): 13.7 ± 2.7 mm^2 and 13.7 ± 2.7^c mm^2 | Gastric lesion ((Index of ulcers in drug tests / Index of ulcers in indomethacin tests) x 100) (stomach): 26.6% | Ratio (%Ref), LnAUCINF ([1]; human): 95.53 %Ref | Ratio (%Ref), Ln (Cmax) [1]: 72.78 %Ref | start of analgesic effect ([2]; intramuscular administration): 30 min | start of analgesic effect ([2]; oral administration): 10 min | dose removed by urine without any change ([3]; ketorolac, remainder excreted in feces): about 91%

COc1cccc(C2(O)CCCCC2CN(C)C)c1 (centres unmarked) [Tramadol, Tramadol Hydrochloride]
Antinociceptive effects (ABC) (rat arthritic pain model; rat, in vivo): 236.7 ± 11.0 au | Emax (rat arthritic pain model; rat, in vivo): 17.1 ± 9.1% | antinociceptive activity (ABC) (rat arthritic pain model; rat, in vivo): 207.7 ± 24.7 au | effect on walking capacity of rats treated with vehicle (rat arthritic pain model; rat, in vivo): did not affect the walking capacity | side effects (sedation, elation, dizziness and effects on walking capacity) (rat arthritic pain model; rat, in vivo): 50 % of animals | DE50 (rat arthritic pain model; rat, in vivo, po): 44.29 ± 0.06 mg/kg | No. of erosions (stomach; rat, in vivo): 0 | Ulcers (sum of the area of all ulcers) (stomach; rat, in vivo): 0 mm^2 | ulcers or erosions (in words) (stomach; rat, in vivo): did not cause ulcers or erosions | bioavailability ([3]; in vivo, po): 79% | time to maximum plasma concentrations ([3]; in vivo, po): 1.5 to 2 h
